According to the kinase profiling compilation of Christmann-Franck et al. (2016):

How the values were obtained:
Assay in all cases: KINOMEscan competition binding
Conditions in all cases: compound 10.0 µM
EPHA7 (human) = EPHA7 (human) (UniProt Q15375)
CAMK1D (human) = CAMK1D (human) (UniProt Q8IU85)
MELK (human) = MELK (human) (UniProt Q14680)
GRK4 (human) = GRK4 (human) (UniProt P32298)
TEK (human) = TEK (human) (UniProt Q02763)
LIMK1 (human) = LIMK1 (human) (UniProt P53667)
RIPK1 (human) = RIPK1 (human) (UniProt Q13546)
PIK3C2G (human) = PIK3C2G (human) (UniProt O75747)
MAP3K9 (human) = MAP3K9 (human) (UniProt P80192)
MAP3K9 (human), sequence (P80192 whole entry, looked up): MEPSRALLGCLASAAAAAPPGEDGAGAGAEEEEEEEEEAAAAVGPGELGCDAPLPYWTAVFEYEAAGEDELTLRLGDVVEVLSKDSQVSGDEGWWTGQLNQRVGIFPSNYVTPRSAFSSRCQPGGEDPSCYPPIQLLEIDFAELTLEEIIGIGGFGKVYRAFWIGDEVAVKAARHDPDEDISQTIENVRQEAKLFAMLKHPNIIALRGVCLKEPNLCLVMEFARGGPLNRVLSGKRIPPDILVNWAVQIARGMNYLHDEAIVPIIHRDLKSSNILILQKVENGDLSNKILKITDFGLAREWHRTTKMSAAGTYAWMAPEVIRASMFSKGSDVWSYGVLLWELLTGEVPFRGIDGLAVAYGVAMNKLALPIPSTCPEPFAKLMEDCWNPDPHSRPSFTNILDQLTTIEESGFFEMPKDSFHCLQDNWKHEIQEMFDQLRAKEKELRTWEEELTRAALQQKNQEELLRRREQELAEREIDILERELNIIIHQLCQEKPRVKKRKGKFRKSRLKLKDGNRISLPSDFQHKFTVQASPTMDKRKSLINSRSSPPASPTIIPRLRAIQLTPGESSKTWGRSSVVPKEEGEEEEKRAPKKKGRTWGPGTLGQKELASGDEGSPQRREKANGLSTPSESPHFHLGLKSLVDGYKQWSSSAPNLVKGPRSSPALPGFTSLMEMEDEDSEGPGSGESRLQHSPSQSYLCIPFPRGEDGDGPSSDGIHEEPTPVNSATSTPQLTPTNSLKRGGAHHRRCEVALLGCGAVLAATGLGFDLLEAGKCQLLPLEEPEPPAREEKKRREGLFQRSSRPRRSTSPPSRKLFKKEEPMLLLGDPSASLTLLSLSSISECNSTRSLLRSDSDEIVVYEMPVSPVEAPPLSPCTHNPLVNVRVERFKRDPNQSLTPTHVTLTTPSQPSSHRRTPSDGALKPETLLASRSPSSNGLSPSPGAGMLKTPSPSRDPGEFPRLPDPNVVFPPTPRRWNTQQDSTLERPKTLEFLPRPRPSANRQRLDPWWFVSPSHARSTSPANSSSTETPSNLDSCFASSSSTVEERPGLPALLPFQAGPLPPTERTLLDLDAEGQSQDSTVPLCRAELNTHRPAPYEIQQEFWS

PRPF4B (human) = PRPF4B (human) (UniProt Q13523)
NTRK1 (human) = NTRK1 (human) (UniProt P04629)
PKN1 (human) = PKN1 (human) (UniProt Q16512)
FGFR1 (human) = FGFR1 (human) (UniProt P11362)
TSSK1B (human) = TSSK1B (human) (UniProt Q9BXA7)
TAOK3 (human) = TAOK3 (human) (UniProt Q9H2K8)
SBK1 (human) = SBK1 (human) (UniProt Q52WX2)
VRK2 (human) = VRK2 (human) (UniProt Q86Y07)
PKMYT1 (human) = PKMYT1 (human) (UniProt Q99640)
RPS6KA6 KD1 (human) = RPS6KA6 KD1 (human) (UniProt Q9UK32)
TYRO3 (human) = TYRO3 (human) (UniProt Q06418)
CDK18 (human) = CDK18 (human) (UniProt Q07002)
CDK8 (human) = CDK8 (human) (UniProt P49336)
DMPK (human) = DMPK (human) (UniProt Q09013)
STK35 (human) = STK35 (human) (UniProt Q8TDR2)
PIP5K1A (human) = PIP5K1A (human) (UniProt Q99755)
CRK2 (P.falciparum) = CRK2 (P.falciparum) (UniProt P61075)
CRK2 (P.falciparum), sequence (P61075 whole entry, looked up): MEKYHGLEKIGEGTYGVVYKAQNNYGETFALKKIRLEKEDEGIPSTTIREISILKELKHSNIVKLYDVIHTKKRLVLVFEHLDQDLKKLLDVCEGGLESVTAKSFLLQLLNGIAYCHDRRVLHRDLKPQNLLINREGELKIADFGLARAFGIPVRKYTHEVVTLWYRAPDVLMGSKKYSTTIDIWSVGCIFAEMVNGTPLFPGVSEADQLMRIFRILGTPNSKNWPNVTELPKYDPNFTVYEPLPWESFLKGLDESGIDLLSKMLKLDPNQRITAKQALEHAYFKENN

CSNK1A1L (human) = CSNK1A1L (human) (UniProt Q8N752)
NTRK2 (human) = NTRK2 (human) (UniProt Q16620)
GAK (human) = GAK (human) (UniProt O14976)
STK38 (human) = STK38 (human) (UniProt Q15208)
STK38 (human), sequence (Q15208 whole entry, looked up): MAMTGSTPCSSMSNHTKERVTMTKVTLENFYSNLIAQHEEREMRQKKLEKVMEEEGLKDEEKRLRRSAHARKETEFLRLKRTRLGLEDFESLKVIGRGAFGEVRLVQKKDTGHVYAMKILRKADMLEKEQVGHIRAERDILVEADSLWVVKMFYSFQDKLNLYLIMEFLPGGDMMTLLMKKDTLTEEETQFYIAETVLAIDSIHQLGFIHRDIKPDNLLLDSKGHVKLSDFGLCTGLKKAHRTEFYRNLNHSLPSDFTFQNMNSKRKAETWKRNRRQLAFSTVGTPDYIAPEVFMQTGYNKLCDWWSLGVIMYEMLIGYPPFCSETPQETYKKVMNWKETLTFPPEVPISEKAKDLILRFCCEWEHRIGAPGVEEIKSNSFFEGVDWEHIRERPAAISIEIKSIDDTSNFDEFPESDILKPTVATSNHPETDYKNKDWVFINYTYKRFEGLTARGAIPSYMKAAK

CDK13 (human) = CDK13 (human) (UniProt Q14004)
PRKCE (human) = PRKCE (human) (UniProt Q02156)
MAP4K3 (human) = MAP4K3 (human) (UniProt Q8IVH8)
ACVRL1 (human) = ACVRL1 (human) (UniProt P37023)
CAMK2A (human) = CAMK2A (human) (UniProt Q9UQM7)
PAK4 (human) = PAK4 (human) (UniProt O96013)
PAK4 (human), sequence (O96013 whole entry, looked up): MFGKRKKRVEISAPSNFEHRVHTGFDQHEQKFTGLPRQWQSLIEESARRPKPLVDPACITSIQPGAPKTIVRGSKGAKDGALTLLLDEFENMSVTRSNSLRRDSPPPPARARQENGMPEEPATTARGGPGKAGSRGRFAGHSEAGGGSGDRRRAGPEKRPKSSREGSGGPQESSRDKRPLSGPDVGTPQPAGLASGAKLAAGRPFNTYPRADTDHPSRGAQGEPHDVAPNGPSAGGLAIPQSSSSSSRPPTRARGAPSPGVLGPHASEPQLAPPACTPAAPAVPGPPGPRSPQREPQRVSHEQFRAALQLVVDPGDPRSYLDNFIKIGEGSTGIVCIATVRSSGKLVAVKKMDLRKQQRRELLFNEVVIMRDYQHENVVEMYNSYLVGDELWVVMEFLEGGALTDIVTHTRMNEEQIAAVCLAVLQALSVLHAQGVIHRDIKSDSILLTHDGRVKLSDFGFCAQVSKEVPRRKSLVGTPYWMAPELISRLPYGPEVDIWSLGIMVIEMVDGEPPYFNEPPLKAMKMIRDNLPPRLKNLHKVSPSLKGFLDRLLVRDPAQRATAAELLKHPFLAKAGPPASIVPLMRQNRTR

PIK3CB (human) = PIK3CB (human) (UniProt P42338)
PIK3CB (human), sequence (P42338 whole entry, looked up): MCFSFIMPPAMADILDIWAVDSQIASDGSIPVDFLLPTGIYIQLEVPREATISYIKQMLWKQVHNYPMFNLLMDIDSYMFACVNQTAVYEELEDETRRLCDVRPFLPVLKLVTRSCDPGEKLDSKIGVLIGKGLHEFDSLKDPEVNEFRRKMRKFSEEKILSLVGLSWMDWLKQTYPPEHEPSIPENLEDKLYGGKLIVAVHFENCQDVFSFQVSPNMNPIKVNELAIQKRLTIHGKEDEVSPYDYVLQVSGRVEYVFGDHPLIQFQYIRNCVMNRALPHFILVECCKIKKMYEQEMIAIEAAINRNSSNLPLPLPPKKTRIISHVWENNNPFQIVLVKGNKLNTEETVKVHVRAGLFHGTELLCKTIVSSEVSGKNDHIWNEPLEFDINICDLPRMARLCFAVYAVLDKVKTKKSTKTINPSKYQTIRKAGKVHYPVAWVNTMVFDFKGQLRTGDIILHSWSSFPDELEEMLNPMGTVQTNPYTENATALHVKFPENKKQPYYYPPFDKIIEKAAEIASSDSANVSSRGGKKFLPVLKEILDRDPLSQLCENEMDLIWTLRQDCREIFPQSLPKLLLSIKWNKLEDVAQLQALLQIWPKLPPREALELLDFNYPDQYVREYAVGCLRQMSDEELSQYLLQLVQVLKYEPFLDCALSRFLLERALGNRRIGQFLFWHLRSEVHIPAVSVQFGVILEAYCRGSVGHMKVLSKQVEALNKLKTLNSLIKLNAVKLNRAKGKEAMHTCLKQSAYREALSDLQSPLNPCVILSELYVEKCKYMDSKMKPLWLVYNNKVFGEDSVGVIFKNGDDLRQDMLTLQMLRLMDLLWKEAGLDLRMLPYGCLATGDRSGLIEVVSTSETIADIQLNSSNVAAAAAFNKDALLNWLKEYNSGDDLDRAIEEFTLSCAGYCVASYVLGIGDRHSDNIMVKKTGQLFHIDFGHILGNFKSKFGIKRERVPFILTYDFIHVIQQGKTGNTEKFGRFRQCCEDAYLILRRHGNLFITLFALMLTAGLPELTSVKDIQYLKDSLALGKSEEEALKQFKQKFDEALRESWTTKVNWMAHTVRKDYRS

PIM3 (human) = PIM3 (human) (UniProt Q86V86)
[1] = molecular target: TYK2 JH1 catalytic (human) (UniProt P29597)
TYK2 JH1 catalytic (human), sequence (P29597 whole entry, looked up): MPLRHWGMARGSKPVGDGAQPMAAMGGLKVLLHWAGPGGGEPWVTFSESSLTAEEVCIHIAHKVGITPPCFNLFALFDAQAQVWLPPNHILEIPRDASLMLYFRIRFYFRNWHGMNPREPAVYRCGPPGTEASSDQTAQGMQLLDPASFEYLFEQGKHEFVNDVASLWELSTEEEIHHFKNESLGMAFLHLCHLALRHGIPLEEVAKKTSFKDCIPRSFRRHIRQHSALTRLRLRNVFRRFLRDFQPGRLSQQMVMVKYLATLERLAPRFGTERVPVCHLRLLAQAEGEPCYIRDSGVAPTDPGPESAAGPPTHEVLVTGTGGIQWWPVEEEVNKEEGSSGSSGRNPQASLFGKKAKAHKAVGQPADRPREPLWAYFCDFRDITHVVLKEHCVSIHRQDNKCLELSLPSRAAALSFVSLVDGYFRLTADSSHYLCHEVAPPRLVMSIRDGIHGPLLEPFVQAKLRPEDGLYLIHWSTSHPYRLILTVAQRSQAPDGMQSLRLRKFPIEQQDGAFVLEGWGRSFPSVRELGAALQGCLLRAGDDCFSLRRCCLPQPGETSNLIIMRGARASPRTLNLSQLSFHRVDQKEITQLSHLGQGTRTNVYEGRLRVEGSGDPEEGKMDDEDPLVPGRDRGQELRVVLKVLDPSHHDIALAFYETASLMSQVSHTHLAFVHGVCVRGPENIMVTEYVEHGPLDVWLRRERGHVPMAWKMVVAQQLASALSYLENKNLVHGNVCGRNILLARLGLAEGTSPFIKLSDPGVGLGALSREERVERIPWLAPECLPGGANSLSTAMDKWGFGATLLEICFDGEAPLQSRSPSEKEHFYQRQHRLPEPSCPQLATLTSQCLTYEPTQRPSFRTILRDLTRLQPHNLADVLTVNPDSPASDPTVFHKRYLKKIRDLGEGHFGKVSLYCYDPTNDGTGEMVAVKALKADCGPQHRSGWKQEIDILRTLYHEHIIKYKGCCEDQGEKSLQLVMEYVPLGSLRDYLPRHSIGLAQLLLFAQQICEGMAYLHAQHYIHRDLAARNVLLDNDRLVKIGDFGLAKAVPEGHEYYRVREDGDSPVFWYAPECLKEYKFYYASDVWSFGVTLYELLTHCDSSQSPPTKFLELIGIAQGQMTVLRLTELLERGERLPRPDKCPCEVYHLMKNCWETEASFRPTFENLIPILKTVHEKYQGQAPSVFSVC

TGFBR1 (human) = TGFBR1 (human) (UniProt P36897)

Compound CCCS(=O)(=O)Nc1ccc(F)c(C(=O)c2c[nH]c3ncc(Cl)cc23)c1F has a kinase still bound, per cent of control (EPHA7 (human)) of 99%, a kinase still bound, per cent of control (CAMK1D (human)) of 78% and a kinase still bound, per cent of control (MELK (human)) of 76%. It also gave a kinase still bound, per cent of control (GRK4 (human)) of 100%, a kinase still bound, per cent of control (TEK (human)) of 100% and a kinase still bound, per cent of control (LIMK1 (human)) of 46%. The kinase still bound, per cent of control (RIPK1 (human)) was 53%, the kinase still bound, per cent of control (PIK3C2G (human)) was 55% and the kinase still bound, per cent of control (MAP3K9 (human)) was 94%. For the same compound, the kinase still bound, per cent of control (PRPF4B (human)) was 82%, the kinase still bound, per cent of control (NTRK1 (human)) was 100% and the kinase still bound, per cent of control (PKN1 (human)) was 85%. For the same compound, the kinase still bound, per cent of control (FGFR1 (human)) was 34%, the kinase still bound, per cent of control (TSSK1B (human)) was 83% and the kinase still bound, per cent of control (TAOK3 (human)) was 61%. The kinase still bound, per cent of control (SBK1 (human)) was 92%, the kinase still bound, per cent of control (VRK2 (human)) was 77% and the kinase still bound, per cent of control (PKMYT1 (human)) was 100%. The kinase still bound, per cent of control (RPS6KA6 KD1 (human)) was 80%, the kinase still bound, per cent of control (TYRO3 (human)) was 100% and the kinase still bound, per cent of control (CDK18 (human)) was 73%. It also gave a kinase still bound, per cent of control (CDK8 (human)) of 2.2%, a kinase still bound, per cent of control (DMPK (human)) of 100% and a kinase still bound, per cent of control (STK35 (human)) of 100%. It also gave a kinase still bound, per cent of control (PIP5K1A (human)) of 100%, a kinase still bound, per cent of control (CRK2 (P.falciparum)) of 91% and a kinase still bound, per cent of control (CSNK1A1L (human)) of 100%. It also gave a kinase still bound, per cent of control (NTRK2 (human)) of 82%, a kinase still bound, per cent of control (GAK (human)) of 40% and a kinase still bound, per cent of control (STK38 (human)) of 78%. The kinase still bound, per cent of control (CDK13 (human)) was 100%, the kinase still bound, per cent of control (PRKCE (human)) was 100% and the kinase still bound, per cent of control (MAP4K3 (human)) was 91%. It also gave a kinase still bound, per cent of control (ACVRL1 (human)) of 100%, a kinase still bound, per cent of control (CAMK2A (human)) of 84% and a kinase still bound, per cent of control (PAK4 (human)) of 57%. For the same compound, the kinase still bound, per cent of control (PIK3CB (human)) was 100%, the kinase still bound, per cent of control (PIM3 (human)) was 65% and the kinase still bound, per cent of control [1] was 24%. The kinase still bound, per cent of control (TGFBR1 (human)) was 60%.
CNC(=O)Nc1ccc(-c2nc(N3CC4CCC(C3)O4)c3cnn(C4CCC5(CC4)OCCO5)c3n2)cc1 was tested, and the kinase still bound, per cent of control (EPHA7 (human)) was 87%, the kinase still bound, per cent of control (CAMK1D (human)) was 95% and the kinase still bound, per cent of control (MELK (human)) was 92%. The kinase still bound, per cent of control (GRK4 (human)) was 100%, the kinase still bound, per cent of control (TEK (human)) was 100% and the kinase still bound, per cent of control (LIMK1 (human)) was 95%. It also gave a kinase still bound, per cent of control (RIPK1 (human)) of 83%, a kinase still bound, per cent of control (PIK3C2G (human)) of 22% and a kinase still bound, per cent of control (MAP3K9 (human)) of 97%. It also gave a kinase still bound, per cent of control (PRPF4B (human)) of 70%, a kinase still bound, per cent of control (NTRK1 (human)) of 100% and a kinase still bound, per cent of control (PKN1 (human)) of 100%. For the same compound, the kinase still bound, per cent of control (FGFR1 (human)) was 100%, the kinase still bound, per cent of control (TSSK1B (human)) was 100% and the kinase still bound, per cent of control (TAOK3 (human)) was 90%. The kinase still bound, per cent of control (SBK1 (human)) was 100%, the kinase still bound, per cent of control (VRK2 (human)) was 100% and the kinase still bound, per cent of control (PKMYT1 (human)) was 75%. It also gave a kinase still bound, per cent of control (RPS6KA6 KD1 (human)) of 87%, a kinase still bound, per cent of control (TYRO3 (human)) of 100% and a kinase still bound, per cent of control (CDK18 (human)) of 92%. The kinase still bound, per cent of control (CDK8 (human)) was 100%, the kinase still bound, per cent of control (DMPK (human)) was 83% and the kinase still bound, per cent of control (STK35 (human)) was 95%. For the same compound, the kinase still bound, per cent of control (PIP5K1A (human)) was 84%, the kinase still bound, per cent of control (CRK2 (P.falciparum)) was 100% and the kinase still bound, per cent of control (CSNK1A1L (human)) was 100%. For the same compound, the kinase still bound, per cent of control (NTRK2 (human)) was 100%, the kinase still bound, per cent of control (GAK (human)) was 75% and the kinase still bound, per cent of control (STK38 (human)) was 100%. It also gave a kinase still bound, per cent of control (CDK13 (human)) of 84%, a kinase still bound, per cent of control (PRKCE (human)) of 100% and a kinase still bound, per cent of control (MAP4K3 (human)) of 94%. For the same compound, the kinase still bound, per cent of control (ACVRL1 (human)) was 100%, the kinase still bound, per cent of control (CAMK2A (human)) was 100% and the kinase still bound, per cent of control (PAK4 (human)) was 100%. It also gave a kinase still bound, per cent of control (PIK3CB (human)) of 46%, a kinase still bound, per cent of control (PIM3 (human)) of 100% and a kinase still bound, per cent of control [1] of 100%. It also gave a kinase still bound, per cent of control (TGFBR1 (human)) of 100%.
Work on CCc1nc(-c2cccc(C)c2)c(-c2ccnc(NC(=O)c3ccccc3)c2)s1 yielded a kinase still bound, per cent of control (EPHA7 (human)) of 92%, a kinase still bound, per cent of control (CAMK1D (human)) of 100% and a kinase still bound, per cent of control (GRK4 (human)) of 100%. The kinase still bound, per cent of control (TEK (human)) was 94%, the kinase still bound, per cent of control (LIMK1 (human)) was 90% and the kinase still bound, per cent of control (RIPK1 (human)) was 95%. For the same compound, the kinase still bound, per cent of control (PIK3C2G (human)) was 40%, the kinase still bound, per cent of control (MAP3K9 (human)) was 94% and the kinase still bound, per cent of control (PRPF4B (human)) was 80%. For the same compound, the kinase still bound, per cent of control (NTRK1 (human)) was 100%, the kinase still bound, per cent of control (PKN1 (human)) was 98% and the kinase still bound, per cent of control (FGFR1 (human)) was 72%. The kinase still bound, per cent of control (TSSK1B (human)) was 87%, the kinase still bound, per cent of control (TAOK3 (human)) was 86% and the kinase still bound, per cent of control (SBK1 (human)) was 100%. The kinase still bound, per cent of control (VRK2 (human)) was 63%, the kinase still bound, per cent of control (PKMYT1 (human)) was 64% and the kinase still bound, per cent of control (RPS6KA6 KD1 (human)) was 94%. The kinase still bound, per cent of control (TYRO3 (human)) was 83%, the kinase still bound, per cent of control (CDK18 (human)) was 96% and the kinase still bound, per cent of control (CDK8 (human)) was 88%. For the same compound, the kinase still bound, per cent of control (DMPK (human)) was 92%, the kinase still bound, per cent of control (STK35 (human)) was 76% and the kinase still bound, per cent of control (PIP5K1A (human)) was 100%. It also gave a kinase still bound, per cent of control (CRK2 (P.falciparum)) of 100%, a kinase still bound, per cent of control (CSNK1A1L (human)) of 1.3% and a kinase still bound, per cent of control (NTRK2 (human)) of 100%. It also gave a kinase still bound, per cent of control (GAK (human)) of 4.4%, a kinase still bound, per cent of control (STK38 (human)) of 100% and a kinase still bound, per cent of control (CDK13 (human)) of 100%. The kinase still bound, per cent of control (PRKCE (human)) was 87%, the kinase still bound, per cent of control (MAP4K3 (human)) was 80% and the kinase still bound, per cent of control (ACVRL1 (human)) was 85%. The kinase still bound, per cent of control (CAMK2A (human)) was 89%, the kinase still bound, per cent of control (PAK4 (human)) was 86% and the kinase still bound, per cent of control (PIK3CB (human)) was 95%. It also gave a kinase still bound, per cent of control (PIM3 (human)) of 86% and a kinase still bound, per cent of control [1] of 100%.
